“And” between values parts separate entries of the source, which are not always exact repeats. Equal values may be shown once.
What was measured:
[1] = tested on: Escherichia coli K-12 ATCC 25253; assay type: cell-based
Salmonella Newport = experiment: Biofilm formation on food contact surface coupons, direct plating; assay type: cell-based, Salmonella enterica; conditions: two-minute treatment
Method: A protocol based on direct plating was also evaluated for testing the biofilm formation by Salmonella or L. monocytogenes. Biofilms were formed on three different food contact surface coupons (HDPE, Buna-N rubber, and 316 stainless steel) for up to 3 days in 35 mm mini-petri dishes. Biofilms were formed using a 1:10 diluted TSB solution (10 mL) with either S. enterica or L. monocytogenes inoculum (100 μL). The diluted TSB was changed every 16-18 hours with new 1:10 diluted TSB (10 mL). Coupons were removed for sampling and enumeration of strongly attached bacteria at three different time points (Day 0, 1, and 3). The coupons were rinsed with deionized water five times to remove planktonic cells. Then the coupons were immersed in 10 mL of BPW. The coupons were sonicated for 2 minutes using different settings (Tables 11 and 12) for each organism. After sonication, the solution was serially diluted and plated on Tryptic Soy Agar (TSA). Plates were incubated at 37° C. for 24-48 hours. The colonies were counted and the colony forming units were determined for the various sonication settings, so that the appropriate setting with the most recovery could be determined. […] These settings were used in further experiments to recover the bacterial cells from coupons during sampling and enumeration (by spread plating) of the bacteria in biofilms.
The reduction in bacterial biofilm formation was also tested using a direct plating method. Biofilms were formed on six different food contact surface coupons (HDPE, Buna-N rubber, PC, PVC, and stainless steel 304 and 316) in separate 35 mm mini-petri dishes and evaluated at three different time points (Day 0, 1, and 3). Biofilms were formed using a 1:10 diluted TSB solution (10 mL) with either S. enterica or L. monocytogenes inoculum (100 μL). The coupons were also washed and treated with antimicrobial solutions containing the plant-based emulsifier and the essential oil/plant extracts at various concentrations. The diluted TSB was changed every 16-18 hours with new 1:10 diluted TSB (10 mL). The coupons were rinsed in the antimicrobial solution before adding them to the petri dishes containing the fresh, diluted TSB. After their specific time points, coupons were removed aseptically using sterile forceps from the petri dish. The coupons were rinsed by submerging in 25 mL of sterile deionized H2O and swirled five times to remove planktonic cells. After rinsing, they were placed into a new petri dish immersed in 10 mL of BPW. The coupons were sonicated for 2 minutes on ice using different settings for each organism. After sonication, the sonicated solution was serially diluted using 0.1% peptone water and spread plated on TSA in duplicate. Plates were incubated overnight at 37° C. for 24-48 hours, after which, the colonies were counted, to establish the efficacy of the antimicrobial solutions (Tables 17-25).

OO [3% hydrogen peroxide, hydrogen peroxide]
Bacterial reductions on spinach samples after sanitizer treatments [1]: 0.8-1.2 Log CFU/g and 1.0-1.3 Log CFU/g | log reduction of E. coli K-12 on spinach [1]: 0.8-1.2 log and 1.0-1.3 log

CC(C)=CCCC(C)=CC=O [Citral, citral]
Survivors of Salmonella Newport on food contact surface (Salmonella Newport; 0.5% with 0.0001% saponin microemulsion, Day 0, 304 SS): 4.32 Log CFU/mL | Survivors of Salmonella Newport on food contact surface (Salmonella Newport; 0.5% with 0.0001% saponin microemulsion, Day 0, 316 SS): 4.36 Log CFU/mL | Survivors of Salmonella Newport on food contact surface (Salmonella Newport; 0.5% with 0.0001% saponin microemulsion, Day 0, Buna N): 4.06 Log CFU/mL | Survivors of Salmonella Newport on food contact surface (Salmonella Newport; 0.5% with 0.0001% saponin microemulsion, Day 0, HDPE): 3.44 Log CFU/mL | Survivors of Salmonella Newport on food contact surface (Salmonella Newport; 0.5% with 0.0001% saponin microemulsion, Day 0, PC): 3.25 Log CFU/mL | Survivors of Salmonella Newport on food contact surface (Salmonella Newport; 0.5% with 0.0001% saponin microemulsion, Day 0, PVC): 3.49 Log CFU/mL | Survivors of Salmonella Newport on food contact surface (Salmonella Newport; 0.5% with 0.0001% saponin microemulsion, Day 1, 304 SS): 4.52 Log CFU/mL | Survivors of Salmonella Newport on food contact surface (Salmonella Newport; 0.5% with 0.0001% saponin microemulsion, Day 1, 316 SS): 4.52 Log CFU/mL | Survivors of Salmonella Newport on food contact surface (Salmonella Newport; 0.5% with 0.0001% saponin microemulsion, Day 1, Buna N): 4.34 Log CFU/mL | Survivors of Salmonella Newport on food contact surface (Salmonella Newport; 0.5% with 0.0001% saponin microemulsion, Day 1, HDPE): 4.24 Log CFU/mL | Survivors of Salmonella Newport on food contact surface (Salmonella Newport; 0.5% with 0.0001% saponin microemulsion, Day 1, PC): 4.20 Log CFU/mL | Survivors of Salmonella Newport on food contact surface (Salmonella Newport; 0.5% with 0.0001% saponin microemulsion, Day 1, PVC): 4.27 Log CFU/mL | Survivors of Salmonella Newport on food contact surface (Salmonella Newport; 0.5% with 0.0001% saponin microemulsion, Day 3, 304 SS): 4.20 Log CFU/mL | Survivors of Salmonella Newport on food contact surface (Salmonella Newport; 0.5% with 0.0001% saponin microemulsion, Day 3, 316 SS): 4.36 Log CFU/mL | Survivors of Salmonella Newport on food contact surface (Salmonella Newport; 0.5% with 0.0001% saponin microemulsion, Day 3, Buna N): 4.20 Log CFU/mL | Survivors of Salmonella Newport on food contact surface (Salmonella Newport; 0.5% with 0.0001% saponin microemulsion, Day 3, HDPE): 3.56 Log CFU/mL | Survivors of Salmonella Newport on food contact surface (Salmonella Newport; 0.5% with 0.0001% saponin microemulsion, Day 3, PC): 3.52 Log CFU/mL | Survivors of Salmonella Newport on food contact surface (Salmonella Newport; 0.5% with 0.0001% saponin microemulsion, Day 3, PVC): 4.27 Log CFU/mL | Survivors of Salmonella Newport on food contact surface (Salmonella Newport; 0.7% with 0.0001% saponin microemulsion, Day 0, 304 SS): 4.23 Log CFU/mL | Survivors of Salmonella Newport on food contact surface (Salmonella Newport; 0.7% with 0.0001% saponin microemulsion, Day 0, 316 SS): 3.59 Log CFU/mL | Survivors of Salmonella Newport on food contact surface (Salmonella Newport; 0.7% with 0.0001% saponin microemulsion, Day 0, Buna N): 4.52 Log CFU/mL | Survivors of Salmonella Newport on food contact surface (Salmonella Newport; 0.7% with 0.0001% saponin microemulsion, Day 0, HDPE): 2.71 Log CFU/mL | Survivors of Salmonella Newport on food contact surface (Salmonella Newport; 0.7% with 0.0001% saponin microemulsion, Day 0, PC): 3.59 Log CFU/mL | Survivors of Salmonella Newport on food contact surface (Salmonella Newport; 0.7% with 0.0001% saponin microemulsion, Day 0, PVC): 3.24 Log CFU/mL | Survivors of Salmonella Newport on food contact surface (Salmonella Newport; 0.7% with 0.0001% saponin microemulsion, Day 1, 304 SS): 3.36 Log CFU/mL | Survivors of Salmonella Newport on food contact surface (Salmonella Newport; 0.7% with 0.0001% saponin microemulsion, Day 1, 316 SS): 3.24 Log CFU/mL | Survivors of Salmonella Newport on food contact surface (Salmonella Newport; 0.7% with 0.0001% saponin microemulsion, Day 1, Buna N): 3.52 Log CFU/mL | Survivors of Salmonella Newport on food contact surface (Salmonella Newport; 0.7% with 0.0001% saponin microemulsion, Day 1, HDPE): <1 Log CFU/mL | Survivors of Salmonella Newport on food contact surface (Salmonella Newport; 0.7% with 0.0001% saponin microemulsion, Day 1, PC): <1 Log CFU/mL | Survivors of Salmonella Newport on food contact surface (Salmonella Newport; 0.7% with 0.0001% saponin microemulsion, Day 1, PVC): <1 Log CFU/mL | Survivors of Salmonella Newport on food contact surface (Salmonella Newport; 0.7% with 0.0001% saponin microemulsion, Day 3, 304 SS): <1 Log CFU/mL | Survivors of Salmonella Newport on food contact surface (Salmonella Newport; 0.7% with 0.0001% saponin microemulsion, Day 3, 316 SS): <1 Log CFU/mL | Survivors of Salmonella Newport on food contact surface (Salmonella Newport; 0.7% with 0.0001% saponin microemulsion, Day 3, Buna N): <1 Log CFU/mL | Survivors of Salmonella Newport on food contact surface (Salmonella Newport; 0.7% with 0.0001% saponin microemulsion, Day 3, HDPE): <1 Log CFU/mL | Survivors of Salmonella Newport on food contact surface (Salmonella Newport; 0.7% with 0.0001% saponin microemulsion, Day 3, PC): <1 Log CFU/mL | Survivors of Salmonella Newport on food contact surface (Salmonella Newport; 0.7% with 0.0001% saponin microemulsion, Day 3, PVC): <1 Log CFU/mL | Survivors of Salmonella Newport on food contact surface (Salmonella Newport; 1% with 0.0001% saponin microemulsion, Day 0, 304 SS): 3.91 Log CFU/mL | Survivors of Salmonella Newport on food contact surface (Salmonella Newport; 1% with 0.0001% saponin microemulsion, Day 0, 316 SS): 4.13 Log CFU/mL | Survivors of Salmonella Newport on food contact surface (Salmonella Newport; 1% with 0.0001% saponin microemulsion, Day 0, Buna N): 3.26 Log CFU/mL | Survivors of Salmonella Newport on food contact surface (Salmonella Newport; 1% with 0.0001% saponin microemulsion, Day 0, HDPE): 4.45 Log CFU/mL | Survivors of Salmonella Newport on food contact surface (Salmonella Newport; 1% with 0.0001% saponin microemulsion, Day 0, PC): 4.20 Log CFU/mL | Survivors of Salmonella Newport on food contact surface (Salmonella Newport; 1% with 0.0001% saponin microemulsion, Day 0, PVC): 3.89 Log CFU/mL | Survivors of Salmonella Newport on food contact surface (Salmonella Newport; 1% with 0.0001% saponin microemulsion, Day 1, 304 SS): <1 Log CFU/mL | Survivors of Salmonella Newport on food contact surface (Salmonella Newport; 1% with 0.0001% saponin microemulsion, Day 1, 316 SS): <1 Log CFU/mL | Survivors of Salmonella Newport on food contact surface (Salmonella Newport; 1% with 0.0001% saponin microemulsion, Day 1, Buna N): <1 Log CFU/mL | Survivors of Salmonella Newport on food contact surface (Salmonella Newport; 1% with 0.0001% saponin microemulsion, Day 1, HDPE): <1 Log CFU/mL | Survivors of Salmonella Newport on food contact surface (Salmonella Newport; 1% with 0.0001% saponin microemulsion, Day 1, PC): <1 Log CFU/mL | Survivors of Salmonella Newport on food contact surface (Salmonella Newport; 1% with 0.0001% saponin microemulsion, Day 1, PVC): <1 Log CFU/mL | Survivors of Salmonella Newport on food contact surface (Salmonella Newport; 1% with 0.0001% saponin microemulsion, Day 3, 304 SS): <1 Log CFU/mL | Survivors of Salmonella Newport on food contact surface (Salmonella Newport; 1% with 0.0001% saponin microemulsion, Day 3, 316 SS): <1 Log CFU/mL | Survivors of Salmonella Newport on food contact surface (Salmonella Newport; 1% with 0.0001% saponin microemulsion, Day 3, Buna N): <1 Log CFU/mL | Survivors of Salmonella Newport on food contact surface (Salmonella Newport; 1% with 0.0001% saponin microemulsion, Day 3, HDPE): <1 Log CFU/mL | Survivors of Salmonella Newport on food contact surface (Salmonella Newport; 1% with 0.0001% saponin microemulsion, Day 3, PC): <1 Log CFU/mL | Survivors of Salmonella Newport on food contact surface (Salmonella Newport; 1% with 0.0001% saponin microemulsion, Day 3, PVC): <1 Log CFU/mL
